Measurements from patent publication US4582824A, “Method for inhibiting activities of platelet activating factor” (Takeda Chemical Industries, Ltd., priority 1983, dated 1986).

How the values were obtained:
[1] = system: PAF-induced platelet aggregation (washed PRP); assay: Activity to inhibit PAF in platelet aggregation (washed PRP); assay type: cell-based, rabbit; details: Oryctolagus cuniculus, test compound 3×10^-5 M, PAF 3×10^-7 M, 37° C., read-out: Inhibition rate
Description: Using an injection syringe containing a 3.15% solution of citric acid (in a ratio of 1 part per 9 parts of blood) as an anticoagulant, the blood was directly collected from a male rabbit. Then, at room temperature, the blood was centrifuged at 1,000 r.p.m. for 10 minutes to harvest a platelet rich plasma (PRP). This PRP was further centrifuged at 1,400 r.p.m. for 15 minutes to give a platelet pellet. The pellet was suspended in Ca^++ -free Tyrode solution (containing 0.25% of gelatin) to give a washed PRP. This washed PRP (250 μl) was stirred at 37° C. for 2 minutes, then 25 μl of a 0.2 to 0.5 mM Ca^++ solution was added, and the mixture was further stirred for 30 seconds. Then, the test compound was added to the above platelet preparation to a level of 3×10^-5 M. After stirring the mixture for 2 minutes, 3×10^-7 M of PAF was added. The degree of platelet aggregation was determined with a platelet aggregometer (Rika Denki). The activity of the test compound was estimated from the inhibition rate as compared with the maximum optical transmission (maximum aggregation) of control PRP by PAF.

endotoxin-induced death = assay: Preventive effect against endotoxin-induced death in mice; assay type: in vivo, mouse (ICR-Jcl); details: 10 mg/kg i.v. + endotoxin 15 mg/kg i.v.
Description: Male mice of ICR-Jcl strain, aged 5 weeks and with a body weight of about 30 g, were used in groups of 7 individuals. For the control group, 15 mg/kg of endotoxin was suspended in 0.1 ml/10 g of physiological saline and injected into the tail vein. For the compound (IA) treatment group, 10 mg/kg of the compound (IA) and 15 mg/kg of endotoxin were suspended in 0.1 ml/10 g of physiological saline and similarly injected into the tail vein. The mice were examined for death up to 20 hours after the treatment.

[2] = system: endotoxin-induced blood pressure fall; assay: Anti-endotoxin shock activity in rats; assay type: in vivo, rat (Sprague-Dawley); details: 10 mg/kg i.v., 10 minutes before endotoxin 15 mg/kg i.v., mean ± SD
Description: Male Sprague-Dawley rats weighing 500 to 600 g were used under pentobarbital sodium (50 mg/kg, i.v.) anesthesia. A cannula was inserted into the femoral artery and secured in position for measurement of blood pressure and another cannula into the femoral vein for administration of a solution of the drug. The blood pressure was measured via a pressure transducer and recorded on a polygraph. For a control group, a suspension of endotoxin (Lipopolysaccharide W. E. coli 0111: B4, Wako Pure Chemical) in physiological saline was administered into the femoral vein and the maximum hypotensive response occurring 3 to 5 minutes after administration was recorded. On the other hand, for the administration of 3-(N-n-octadecylcarbamoyloxy)-2-methoxypropyl 2-thiazolioethyl phosphate [hereinafter, compound (IA)], the compound (IA) was dissolved in physiological saline and administered into the femoral vein in a dose of 10 mg/kg. Ten (10) minutes after the administration of (IA), endotoxin was similarly administered and the maximum hypotensive response was recorded. The anti-endotoxin shock activity of the test compound was estimated from the difference in blood pressure response between the (IA) treatment group and the non-(IA)treatment group.

[3] = system: PAF-induced respiratory (airway) stenosis; assay: PAF-inhibiting activity in respiratory stenosis; assay type: in vivo, guinea pig (Hartley); details: 2 minutes before PAF 0.3 μg/kg i.v.
Description: Male and female Hartley strain guinea pigs weighing about 400 g were used. Under urethane anesthesia (1.5 g/kg, i.p.), each animal was immobilized in supine position and one shank of a tracheal cannula (of 4-shank type) was inserted into the airway, with two of the remaining three shanks being connected to a Harvard Apparatus rodent respirator and the remaining one shank to a bronchospasm transducer (Ugo-basile Model 7020). At an air volume of 5 to 7 ml per cycle, an air supply frequency of 70 times/min. and a lung loading pressure of 10 cm H2 O, the volume of overflowing air was recorded through the transducer on a rectigraph (Rectigraph-8S, Sanei Sokki K.K.). After gallamine triethodide (1 mg/kg, i.v.) treatment, […] of histamine 2HCl was intravenously administered to examine the response of the animal. When 0.3 μg/kg of PAF was intravenously administered to control group intravenously pretreated with physiological saline, a miximum airway stenosis was noted after 30 minutes and the amount of stenosis taking a complete stenosis as 100% was 72.8±4.3 (mean±S.D., for 6 cases). The compound of Production Example 2, when intravenously administered 2 minutes before at the dose levels of 0.3 and 1 mg/kg, suppressed the above response by PAF by 49% and 82%, respectively.

[4] = system: circulatory shock due to PAF; assay: Inhibitory activity against circulatory shock due to PAF in anesthetized dogs; assay type: in vivo, mongrel dogs; details: PAF 1.0 μg/kg i.v. after pretreatment 10 mg/kg i.v.
Description: Male and female mongrel dogs weighing 9 to 13 kg were used. Under pentobarital sodium ([…], i.v.) anesthesia and supportive respiration, a thoracotomy was performed at the left fourth interspace. The origin of the left coronary circumflex and the aortic arch were released, an electromagnetic probe was attached to each, and the coronary blood flow (CoF) and cardiac output (CO) were measured. Moreover, a polyethylene cannula was inserted from the apex of the heart into the left ventricle and the left ventricular pressure (LVP) was measured by means of a pressure transducer. In addition, its first-order differential dp/dt was determined by way of a differential circuit. The mean blood pressure (MBP) was continuously recorded on an ink-writing polygraph through a pressure transducer via a cannula inserted into the right femoral artery and the heart rate (HR) was similarly recorded via a tachometer driven by mean blood pressure pulse waves. PAF and the compound of Production Example 2 were respectively dissolved in physiological saline and administered via a cannula into the left femoral vein. After 1.0 μg/kg of PAF was intravenously administered and the respective parameters recovered to normal, the compound of Production Example 2 (10 mg/kg) was intravenously administered. After 10 minutes, 1.0 μg/kg of PAF was intravenously administered to estimate the anti-PAF activity of the compound of Production Example 2. All values are in percents relative to the values prior to PAF administration.

## CCCCCCCCCCCCCCCCCCNC(=O)OCC(COP(=O)([O-])OCC[n+]1ccccc1)OC (centres unmarked) [Production Example 1, 3-(N-Octadecylcarbamoyloxy)-2-methoxypropyl 2-pyridinioethyl phosphate]
[1]
  inhibition at 30 µM: 95%

## CCCCCCCCCCCCCCCCCCNC(=O)OCC(COP(=O)([O-])OCC[n+]1ccc2ccccc2c1)OC (centres unmarked) [Production Example 5, 3-(N-Octadecylcarbamoyloxy)-2-methoxypropyl 2-isoquinolinioethyl phosphate]
[1]
  inhibition at 30 µM: 37%

## CCCCCCCCCCCCCCCNC(=O)OCC(COP(=O)([O-])OCC[n+]1ccsc1)OC (centres unmarked) [Production Example 10, 2-Methoxy-3-pentadecylcarbamoyloxypropyl 2-thiazolioethyl phosphate]
[1]
  inhibition at 30 µM: 100%

## CCCCCCCCCCCCCCCCCCNC(=O)OCC(COP(=O)([O-])OCC[n+]1csc(CCO)c1C)OC (centres unmarked) [Production Example 4, 3-(N-octadecylcarbamoyloxy)-2-methoxypropyl 2-(4-methyl-5-hydroxyethyl)thiazolioethyl phosphate]
[1]
  inhibition at 30 µM: 33%

## CCCCCCCCCCCCCCCCNC(=O)OCC(COP(=O)([O-])OCC[n+]1ccsc1)OC (centres unmarked) [Production Example 11, 2-Methoxy-3-hexadecylcarbamoyloxypropyl 2-thiazolioethyl phosphate]
[1]
  inhibition at 30 µM: 100%

## CCCCCCCCCCCCCCCCCCNC(=O)OCC(COP(=O)([O-])OCC[n+]1ccsc1)OC (centres unmarked) [Production Example 2, 3-(N-Octadecylcarbamoyloxy)-2-methoxypropyl 2-thiazolioethyl phosphate]
endotoxin-induced death
  Mortality within 20 hrs.: 14%
  No. of deaths within 20 hrs. after drug administration, Deaths/survivals: 1/7
[2]; listed as Compound (IA)
  Max. hypotensive response after drug administration (-ΔmmHg): 15 ± 3 mmHg
[2]; listed as compound (IA)
  Max. hypotensive response after drug administration (-ΔmmHg): 15 mmHg
[1]
  inhibition at 30 µM: 100%
[3]; 0.3 mg/kg i.v.
  suppression of the airway stenosis response by PAF: 49%
[3]; 1 mg/kg i.v.
  suppression of the airway stenosis response by PAF: 82%
[4]; 0.5 min
  CO (percent of value prior to PAF): 107 ± 4%
  CoF (percent of value prior to PAF): 109 ± 4%
  DBP (percent of value prior to PAF): 78 ± 5%
  HR (percent of value prior to PAF): 109 ± 2%
  LVP (percent of value prior to PAF): 92 ± 3%
  MBP (percent of value prior to PAF): 87 ± 7%
  SBP (percent of value prior to PAF): 90 ± 3%
  max dp/dt (row head is a drawing; percent of value prior to PAF): 94 ± 7%
[4]; 1 min
  CO (percent of value prior to PAF): 99 ± 2%
  CoF (percent of value prior to PAF): 103 ± 3%
  DBP (percent of value prior to PAF): 99 ± 1%
  HR (percent of value prior to PAF): 105 ± 1%
  LVP (percent of value prior to PAF): 97 ± 3%
  MBP (percent of value prior to PAF): 99 ± 1%
  SBP (percent of value prior to PAF): 99 ± 1%
  max dp/dt (row head is a drawing; percent of value prior to PAF): 98 ± 2%
[4]; 5 min
  CO (percent of value prior to PAF): 103 ± 5%
  CoF (percent of value prior to PAF): 97 ± 3%
  DBP (percent of value prior to PAF): 101 ± 2%
  HR (percent of value prior to PAF): 103 ± 3%
  LVP (percent of value prior to PAF): 100 ± 1%
  MBP (percent of value prior to PAF): 101 ± 2%
  SBP (percent of value prior to PAF): 102 ± 3%
  max dp/dt (row head is a drawing; percent of value prior to PAF): 102 ± 3%

## CCCCCCCCCCCCCCCCCCCCCCNC(=O)OCC(COP(=O)([O-])OCC[n+]1ccsc1)OC (centres unmarked) [Production Example 8, 3-(N-Docosylcarbamoyloxy)-2-methoxypropyl 2-thiazolioethyl phosphate]
[1]
  inhibition at 30 µM: 24%

## CCCCCCCCCCNC(=O)OCC(COP(=O)([O-])OCC[n+]1ccsc1)OC (centres unmarked) [Production Example 3, 3-(N-Decylcarbamoyloxy)-2-methoxypropyl 2-thiazolioethyl phosphate]
[1]
  inhibition at 30 µM: 12%

## CCCCCCCCCCCCCCCCCNC(=O)OCC(COP(=O)([O-])OCC[n+]1ccsc1)OC (centres unmarked) [Production Example 12, 2-methoxy-3-heptadecylcarbamoyloxypropyl 2-thiazolioethyl phosphate]
[1]
  inhibition at 30 µM: 100%

## CCCCCCCCCCCCCCCCCCNC(=O)OCC(COP(=O)([O-])OCC[n+]1ccccc1)OCc1ccccc1 (centres unmarked) [Production Example 7, 3-(N-Octadecylcarbamoyloxy)-2-benzyloxypropyl 2-pyridinioethyl phosphate]
[1]
  inhibition at 30 µM: 19%

## CCCCCCCCCCCCCCCCCCNC(=O)OCC(COP(=O)([O-])OCC[n+]1ccsc1)OCc1ccccc1 (centres unmarked) [Production Example 6, 3-(N-Octadecylcarbamoyloxy)-2-benzyloxypropyl 2-thiazolioethyl phosphate]
[1]
  inhibition at 30 µM: 79%
